{"source": "patent US8114904B2", "about": "“Luminescence quenchers and fluorogenic probes for detection of reactive species” (Versitech Limited & Morningside Ventures Limited, priority 2008, dated 2012)", "key": {"[1]": {"assay": "UV-visible absorption spectrum", "format": "physicochemical", "details": "1 μM solution, pH 7.4 0.1 M phosphate buffer, 0.1% DMF", "experimental": "Compound 10 obtained in Example 4 was dissolved in pH 7.4 0.1 M phosphate buffer containing 0.1% DMF as cosolvent to form a 10 μM solution.\nCompound 12 obtained in Example 5 was dissolved in pH 7.4 0.1 M phosphate buffer containing 0.1% DMF as cosolvent to form a 1 μM solution.\nCompound 14 obtained in Example 6 was dissolved in pH 7.4 0.1 M phosphate buffer containing 0.1% DMF as cosolvent to form a 1 μM solution.\nCompound 30 obtained in Example 7 was dissolved in pH 7.4 0.1 M phosphate buffer containing 0.1% DMF as cosolvent to form a 10 μM solution. The absorption spectrum of the 10 μM solution of Compound 30 was measured."}, "[2]": {"assay": "Emission spectra of the probe itself", "format": "physicochemical", "details": "1 μM, 0.1 M phosphate buffer pH 7.4, excitation 515 nm, Hitachi F2500, 700 V", "experimental": "(§1) Compound 10 obtained in Example 4 was dissolved in DMF to a concentration of 10 mM, and then the solution was diluted to 10 μM by 0.1 M phosphate buffer (pH 7.4). The fluorescence spectrum of the 10 μM solution of Compound 10 was measured using a Hitachi F2500 fluorescence spectrometer and the photomultiplier voltage was 700 V. The slit width was 2.5 nm for both excitation and emission. The measurement was carried out at an excitation wavelength of 520 nm. The results shown in FIG. 1 indicate that Compound 10 itself is non-fluorescent.\n(§2) Compound 12 obtained in Example 5 was dissolved in DMF to a concentration of 1 mM, and then the solution was diluted to 1 μM by 0.1 M phosphate buffer (pH 7.4). The fluorescence spectrum of the 1 μM solution of Compound 12 was measured using a Hitachi F2500 fluorescence spectrometer and the photomultiplier voltage was 700 V. The slit width was 2.5 nm for both excitation and emission. The measurement was carried out at an excitation wavelength of 515 nm. The results shown in FIG. 4 indicate that Compound 12 itself is non-fluorescent.\nas §2, with “Compound 14” for “Compound 12”, “Example 6” for “Example 5”, “FIG. 6” for “FIG. 4”\nas §1, with “Compound 30” for “Compound 10”, “Example 7” for “Example 4”, “Hitachi F7000” for “Hitachi F2500”, “was 900” for “was 700”, “nm.” for “nm. The results shown in FIG. 1 indicate that Compound 10 itself is non-fluorescent.”"}, "[3]": {"assay": "Comparison of specificity with different ROS and RNS", "details": "1 μM probe in 0.1 M potassium phosphate buffer", "experimental": "The reactivity of Compound 10 was compared toward different reactive oxygen species (ROS) and reactive nitrogen species (RNS), including OCl^−, H2O2, ^1O2, NO, O2^•−, ^•OH, ONOO^− and alkylperoxyl radical (ROO^•). Different reactive oxygen species and reactive nitrogen species were added independently to 5 mL of the solution of Compound 10 (10 μM in 0.1 M potassium phosphate buffer). The changes of fluorescence intensity before and after the treatment were measured. The reactive oxygen species and reactive nitrogen species were prepared as follows. • a. H2O2 (final 100 μM) was added and then stirred for 1 hour at 25° C. • b. (3-(1,4-Dihydro-1,4-epidioxy-1-naphthyl)propionic acid) (final 100 μM) was added and then stirred at 25° C. for 1 hour. • c. 2,2′-Azobis(2-amidinopropane)dihydrochloride (final 100 μM) was added and then stirred at 25° C. for 1 hour. • d. SNP (Sodium Nitroferricyanide (III) Dihydrate) (final 100 μM) was added and then stirred for 1 hour at 25° C. • e. O2^•− was generated by xanthine and xanthine oxidase. Xanthine oxidase was added firstly. After xanthine oxidase was dissolved, xanthine (final 100 μM) was added and the mixtures were stirred at 25° C. for 1 hour. • f. Ferrous chloride (final 10 μM) was added in the presence of 10 equivalences of H2O2 (100 μM). • g. ONOO^− (final 10 μM) was added at 25° C. • h. NaOCl (final 10 μM) was added at 25° C. Commercial bleach was the source of NaOCl.\nThe reactivity of Compound 12 was compared toward different reactive oxygen species (ROS) and reactive nitrogen species (RNS), including OCl^−, H2O2, ^1O2, NO, O2^•−, ^•OH, ONOO^− and alkylperoxyl radical (ROO^•). Different reactive oxygen species and reactive nitrogen species were added independently to 5 mL of the solution of Compound 12 (1 μM in 0.1 M potassium phosphate buffer). The changes of fluorescence intensity before and after the treatment were measured. The reactive oxygen species and reactive nitrogen species were prepared as follows: • i. H2O2 (final 100 μM) was added and then stirred for 1 hour at 25° C. • j. (3-(1,4-Dihydro-1,4-epidioxy-1-naphthyl)propionic acid) (final 100 μM) was added and then stirred at 25° C. for 1 hour. • k. 2,2′-Azobis(2-amidinopropane)dihydrochloride (final 100 μM) was added and then stirred at 25° C. for 1 hour. • l. SNP (Sodium Nitroferricyanide (III) Dihydrate) (final 100 μM) was added and then stirred for 1 hour at 25° C. • m. O2^•− was generated by xanthine and xanthine oxidase. Xanthine oxidase was added firstly. After xanthine oxidase was dissolved, xanthine (final 100 μM) was added and the mixtures were stirred at 25° C. for 1 hour. • n. Ferrous chloride (final 10 μM) was added in the presence of 10 equivalences of H2O2 (100 μM). • o. ONOO^− (final 10 μM) was added at 25° C. • p. NaOCl (final 10 μM) was added at 25° C. Commercial bleach was the source of NaOCl.\nThe reactivity of Compound 14 was compared toward different reactive oxygen species (ROS) and reactive nitrogen species (RNS), including OCl^−, H2O2, ^1O2, NO, O2^•−, ^•OH, ONOO^− and alkylperoxyl radical (ROO^•). Different reactive oxygen species and reactive nitrogen species were added independently to 5 mL of the corresponding solution of Compound 14 (1 μM in 0.1 M potassium phosphate buffer). The changes in fluorescence intensity before and after the treatment were measured. The reactive oxygen species and reactive nitrogen species were prepared as follows: • a. H2O2 (final 100 μM) was added and then stirred for 1 hour at 25° C. • b. (3-(1,4-Dihydro-1,4-epidioxy-1-naphthyl)propionic acid) (final 100 μM) was added and then stirred at 25° C. for 1 hour. • c. 2,2′-Azobis(2-amidinopropane)dihydrochloride (final 100 μM) was added and then stirred at 25° C. for 1 hour. • d. SNP (Sodium Nitroferricyanide (III) Dihydrate) (final 100 μM) was added and then stirred for 1 hour at 25° C. • e. O2^•− was generated by xanthine and xanthine oxidase. Xanthine oxidase was added firstly. […]"}, "[4]": {"assay": "Detection of hypochlorite: fluorescence spectra after addition of NaOCl", "details": "1 μM probe", "experimental": "Compound 14 obtained in Example 6 was dissolved in DMF to a concentration of 1 mM, and then the solution was diluted to 1 μM by 0.1 M potassium phosphate buffer (pH 7.4). Commercial bleach was the source of NaOCl. The concentration of NaOCl was determined by titration with sodium thiosulfate solution which was standardized by the titration with KlO3. Then NaOCl was added to provide final concentrations of 0, 2, 3, 4, 5, 6, 7, and 8 μM. Fluorescence spectra of the solutions were measured after 5 minutes under the same conditions as mentioned above."}}, "data": [{"molecule": "CN(c1ccc(N)cc1)c1ccc2c(c1)Oc1cc(O)ccc1C21OC(=O)c2ccccc21", "note": "(stereo not drawn) [Compound 14]", "values": [{"measurement": "absorption maximum", "setting": "[1]", "result": "about 515 nm"}, {"measurement": "fluorescence of the probe itself", "setting": "[2]", "result": "non-fluorescent"}, {"measurement": "reactivity among ROS and RNS in an abiotic system", "setting": "[3]", "result": "much higher reactivity towards hypochlorite"}, {"measurement": "fluorescence enhancement by hypochlorite compared with any other ROS and RNS", "setting": "[3]; 25° C.", "result": "much stronger fluorescence enhancement"}, {"measurement": "fluorescence intensity at 535 nm with increasing concentration of hypochlorite", "setting": "[4]; 0.1 M potassium phosphate buffer pH 7.4", "result": "increases linearly"}, {"measurement": "fluorescence intensity after the addition of hypochlorite", "setting": "[4]; NaOCl 0-8 μM, 0.1 M potassium phosphate buffer pH 7.4, after 5 minutes, excitation 515 nm", "result": "increase significantly"}]}]}
